Data reported in patent publication US20100137313A1 (ASTRAZENECA AB, priority 2008, published 2010).

Molecular target: S. pneumoniae Topoisomerase IV ATPase (ParE) (Streptococcus pneumoniae serotype 4, UniProt Q59961)
Experiment: S. pneumoniae Topoisomerase IV ATPase inhibition
Format: biochemical
Details: values marked * are an average of two or more data points, read-out: % Inh (13 μM) of S. pneumoniae Topoisomerase IV ATPase
Summary of the method: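 Phosphate release by ParE ATPase from S. pneumoniae read colorimetrically (malachite green, 650 nm), enzyme 1.25 nM, ATP 160 μM, salmon sperm DNA present, buffer 20 mM Tris pH 8.0 with 8 mM MgCl2. IC50 over 10 compound concentrations, EDTA (20 μM) and DMSO controls defining inhibition range.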

Sequence of S. pneumoniae Topoisomerase IV ATPase (ParE) (Q59961 whole entry): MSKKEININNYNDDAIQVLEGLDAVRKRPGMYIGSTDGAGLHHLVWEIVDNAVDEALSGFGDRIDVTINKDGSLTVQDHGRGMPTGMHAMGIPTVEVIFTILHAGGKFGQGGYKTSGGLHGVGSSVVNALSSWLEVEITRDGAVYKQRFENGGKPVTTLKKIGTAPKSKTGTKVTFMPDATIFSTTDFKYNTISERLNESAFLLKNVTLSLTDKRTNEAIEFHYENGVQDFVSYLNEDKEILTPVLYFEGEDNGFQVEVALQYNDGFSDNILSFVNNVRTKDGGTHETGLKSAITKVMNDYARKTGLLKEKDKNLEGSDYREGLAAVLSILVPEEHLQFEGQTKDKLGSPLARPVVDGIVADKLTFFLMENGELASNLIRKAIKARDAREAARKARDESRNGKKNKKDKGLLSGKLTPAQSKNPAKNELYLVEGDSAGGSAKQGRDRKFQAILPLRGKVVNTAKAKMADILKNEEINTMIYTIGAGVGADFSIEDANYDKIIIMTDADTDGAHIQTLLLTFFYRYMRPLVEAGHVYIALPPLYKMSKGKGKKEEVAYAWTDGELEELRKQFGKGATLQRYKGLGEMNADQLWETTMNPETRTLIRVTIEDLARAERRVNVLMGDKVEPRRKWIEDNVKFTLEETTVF

SMILES | inhibition at 13 µM
COc1ncc(-c2cnc(Nc3ccc(F)c(Cl)c3)nc2-n2nc(C(F)(F)F)cc2C)cc1C(=O)NS(C)(=O)=O [Example 1025, 5-(2-(3-Chloro-4-fluorophenylamino)-4-(5-methyl-3-(trifluoromethyl)-1H-pyrazol-1-yl)pyrimidin-5-yl)-2-methoxy-N-(methylsulfonyl)nicotinamide] | 98%
COc1cc(Nc2ncc(-c3cc(C(=O)NS(C)(=O)=O)c(=O)n(C)c3)c(-n3nc(C(F)(F)F)cc3C)n2)cc(OC)c1 [Example 1026] | 98%
COc1ncc(-c2cnc(Nc3ccc(F)c(Cl)c3)nc2-n2ccc(C(F)(F)F)n2)cc1CO [Example 1027, (5-(2-(3-chloro-4-fluorophenylamino)-4-(3-(trifluoromethyl)-1H-pyrazol-1-yl)pryimidin-5-yl)-2-methoxypyridin-3yl)methanol] | 94%
COc1ncc(-c2cnc(Nc3ccc(F)c(Cl)c3)nc2-n2ccc(C(F)(F)F)n2)cc1/C=C/C(=O)O [Example 1030, (E)-3-(5-(2-(3-chloro-4-fluorophenylamino)-4-(3-(trifluoromethyl)-1H-pyrazol-1-yl)pyrimidin-5-yl)-2-methoxypyridin-3-yl)acrylic acid] | 100%
CCN(CC)S(=O)(=O)c1cncc(-c2cnc(Nc3ccc(F)c(Cl)c3)nc2-n2ccc(C(F)(F)F)n2)c1 [Example 1033, 5-(2-(3-Chloro-4-fluorophenylamino)-4-(3-(trifluoromethyl)-1H-pyrazol-1-yl)pyrimidin-5-yl)-N,N-diethylpyridine-3-sulfonamide] | 20%
CCN(CC)S(=O)(=O)c1cncc(-c2cnc(Nc3ccc(F)c(Cl)c3)nc2-n2nc(C(F)(F)F)cc2C)c1 [Example 1034] | 96%
O=S(=O)(c1cncc(-c2cnc(Nc3ccc(F)c(Cl)c3)nc2-n2ccc(C(F)(F)F)n2)c1)N1CCOCC1 [Example 1035] | 51%
Cc1cc(C(F)(F)F)nn1-c1nc(Nc2ccc(F)c(Cl)c2)ncc1-c1cncc(S(=O)(=O)N2CCOCC2)c1 [Example 1036] | 100%
COC(=O)CC(=O)c1cncc(-c2cnc(Nc3ccc(F)c(Cl)c3)nc2N2CCOCC2)c1 [Example 1039, Methyl 3-(5-(2-(3-chloro-4-fluorophenylamino)-4-morpholinopyrimidin-5-yl)pyridin-3-yl)-3-oxopropanoate] | 90%
COCCCNc1nc(Nc2ccc(F)c(Cl)c2)ncc1-c1cncc(C(=O)CC(=O)OC)c1 [Example 1040, Methyl 3-(5-(2-(3-chloro-4-fluorophenylamino)-4-(3-methoxypropylamino)pyrimidin-5-yl)pyridin-3-yl)-3-oxopropanoate] | 86%
COC(=O)CC(=O)c1cncc(-c2cnc(Nc3ccc(F)c(Cl)c3)nc2-n2nc(C(F)(F)F)cc2C)c1 [Example 1041, Methyl 3-(5-(2-(3-chloro-4-fluorophenylamino)-4-(5-methyl-3-(trifluoromethyl)-1H-pyrazol-1-yl)pyrimidin-5-yl)pyridin-3-yl)-3-oxopropanoate] | 100%
Cc1cc(C(F)(F)F)nn1-c1nc(Nc2ccc(F)c(Cl)c2)ncc1-c1ccc2c(c1)C(=O)NC2=O [Example 1042, 5-(2-(3-Chloro-4-fluorophenylamino)-4-(5-methyl-3-(trifluoromethyl)-1H-pyrazol-1-yl)pyrimidin-5-yl)isoindoline-1,3-dione] | 49%
Cn1cc(-c2cnc(Nc3ccc(F)c(Cl)c3)nc2-n2ccc(C(F)(F)F)n2)cc(C(=O)NS(C)(=O)=O)c1=O [Example 1048, 5-(2-(3-Chloro-4-fluorophenylamino)-4-(3-(trifluoromethyl)-1H-pyrazol-1-yl)pyrimidin-5-yl)-1-methyl-N-(methylsulfonyl)-2-oxo-1,2-dihydropyridine-3-carboxamide] | 100%
Cc1cc(C(F)(F)F)nn1-c1nc(Nc2ccc(F)c(Cl)c2)ncc1-c1cc(C(=O)NS(C)(=O)=O)c(=O)n(C)c1 [Example 1049, 5-(2-(3-Chloro-4-fluorophenylamino)-4-(5-methyl-3-(trifluoromethyl)-1H-pyrazol-1-yl)pyrimidin-5-yl)-1-methyl-N-(methylsulfonyl)-2-oxo-1,2-dihydropyridine-3-carboxamide] | 99%
COCCCNc1nc(Nc2ccc(F)c(Cl)c2)ncc1-c1ccc2cc(C(=O)OC)[nH]c2c1 [Example 1051, methyl 6-(2-(3-chloro-4-fluorophenylamino)-4-(3-methoxypropylamino)pyrimidin-5-yl)-1H-indole-2-carboxylate] | 0%
CCOC(=O)c1cc2cc(-c3cnc(Nc4ccc(F)c(Cl)c4)nc3NCCCOC)ccc2[nH]1 [Example 1052, Ethyl 5-(2-(3-chloro-4-fluorophenylamino)-4-(3-methoxyproylamino)pyrimidin-5-yl)-1H-indole-2-carboxylate] | 0%

SMILES | inhibition at 13 µM
COC(=O)c1cc2ccc(-c3cnc(Nc4ccc(F)c(Cl)c4)nc3N3CCOCC3)cc2[nH]1 [Example 1053, Methyl 6-(2-(3-chloro-4-fluorophenylamino)-4-morpholinopyrimidin-5-yl)-1H-indole-2-carboxylate] | 0%
CCOC(=O)c1cc2cc(-c3cnc(Nc4ccc(F)c(Cl)c4)nc3N3CCOCC3)ccc2[nH]1 [Example 1054, Ethyl 5-(2-(3-chloro-4-fluorophenylamino)-4-morpholinopyrimidin-5-yl)-1H-indole-2-carboxylate] | 0%
CCC1COC(C)CN1c1nc(Nc2ccc(F)c(Cl)c2)ncc1-c1cccc(/C=C/C(=O)O)c1 (centres unmarked) [Example 1056, (E)-3-(3-(2-(3-chloro-4-fluorophenylamino)-4-(5-ethyl-2-methylmorpholino)pyrimidin-5-yl)phenyl)acrylic acid] | 85%
COCCn1cc(C(=O)O)c(=O)c2cc(-c3cnc(Nc4ccc(F)c(Cl)c4)nc3NCCCN(C)C)ccc21 [Example 1057, 6-(2-(3-Chloro-4-fluorophenylamino)-4-(3-(dimethylamino)propylamino)pyrimidin-5-yl)-1-(2-methoxyethyl)-4-oxo-1,4-dihydroquinoline-3-carboxylic acid] | 83%
CCC1COC(C)CN1c1nc(Nc2ccc(F)c(Cl)c2)ncc1-c1cncc(C(=O)O)c1 (centres unmarked) [Example 1058, 5-(2-(3-Chloro-4-fluorophenylamino)-4-(5-ethyl-2-methylmorpholino)pyrimidin-5-yl)nicotinic acid] | 87%
O=C(O)/C=C/c1cccc(-c2cnc(Nc3ccc(F)c(Cl)c3)nc2N2CCOC(CO)C2)c1 (centres unmarked) [Example 1059] | 85%
O=C(O)c1cncc(-c2cnc(Nc3ccc(F)c(Cl)c3)nc2N2CCOC(CO)C2)c1 (centres unmarked) [Example 1060] | 87%
COCCCNc1nc(Nc2ccc(F)c(Cl)c2)ncc1-c1ccc2cc(C(=O)O)[nH]c2c1 [Example 1061, 6-(2-(3-chloro-4-fluorophenylamino)-4-(3-methoxypropylamino)pyrimidin-5-yl)-1H-indole-2-carboxylic acid] | 92%
COCCCNc1nc(Nc2ccc(F)c(Cl)c2)ncc1-c1ccc2[nH]c(C(=O)O)cc2c1 [Example 1062, 5-(2-(3-chloro-4-fluorophenylamino)-4-(3-methoxypropylamino)pyrimidin-5-yl)-1H-indole-2-carboxylic acid] | 91%
O=C(O)c1cc2ccc(-c3cnc(Nc4ccc(F)c(Cl)c4)nc3N3CCOCC3)cc2[nH]1 [Example 1063, 6-(2-(3-Chloro-4-fluorophenylamino)-4-morpholinopyrimidin-5-yl)-1H-indole-2-carboxylic acid] | 94%
O=C(O)c1cc2cc(-c3cnc(Nc4ccc(F)c(Cl)c4)nc3N3CCOCC3)ccc2[nH]1 [Example 1064, 5-(2-(3-Chloro-4-fluorophenylamino)-4-morpholinopyrimidin-5-yl)-1H-indole-2-carboxylic acid] | 100%
COc1ncc(-c2cnc(Nc3ccc(F)c(Cl)c3)nc2-n2ccc(C(F)(F)F)n2)cc1C(=O)O [Example 1066, 5-(2-(3-chloro-4-fluorophenylamino)-4-(3-(trifluoromethyl)-1H-pyrazol-1-yl)pyrimidin-5-yl)-2-methoxynicotinic acid] | 100%
COc1ncc(-c2cnc(Nc3ccc(F)c(Cl)c3)nc2-n2nc(C(F)(F)F)cc2C)cc1C(=O)O [Example 1067, 5-(2-(3-chloro-4-fluorophenylamino)-4-(5-methyl-3-(trifluoromethyl)-1H-pyrazol-1-yl)pyrimidin-5-yl)-2-methoxynicotinic acid] | 98%
O=C(O)c1cc(-c2cnc(Nc3ccc(F)c(Cl)c3)nc2-n2ccc(C(F)(F)F)n2)ccn1 [Example 1068, 4-(2-(3-Chloro-4-fluorophenylamino)-4-(3-(trifluoromethyl)-1H-pyrazol-1-yl)pyrimidin-5-yl)picolinic acid] | 100%
O=C(O)c1cn(CCN2CCOCC2)c2ccc(-c3cnc(Nc4ccc(F)c(Cl)c4)nc3-n3ccc(C(F)(F)F)n3)cc2c1=O [Example 1069, 6-(2-(3-Chloro-4-fluorophenylamino)-4-(3-(trifluoromethyl)-1H-pyrazol-1-yl)pyrimidin-5-yl)-1-(2-morpholinoethyl)-4-oxo-1,4-dihydroquinoline-3-carboxylic acid] | 100%
CN(C)CCn1cc(C(=O)O)c(=O)c2cc(-c3cnc(Nc4ccc(F)c(Cl)c4)nc3-n3ccc(C(F)(F)F)n3)ccc21 [Example 1070, 6-(2-(3-Chloro-4-fluorophenylamino)-4-(3-(trifluoromethyl)-1H-pyrazol-1-yl)pyrimidin-5-yl)-1-(2-(dimethylamino)ethyl)-4-oxo-1,4-dihydroquinoline-3-carboxylic acid] | 93%
